Read-outs that look alike come from different tables or passages of the source.
Assays:
[1] = plasma stability (Plasma Assay Protocol); format: in vitro ADME; settings: 37° C., t1/2 extrapolated if >50% remaining at 60 min, ∞ if near 100% remaining
Procedure: ND refers to not disclosed.
• 1. Preheated 0.05 M sodium phosphate and 0.07 M NaCl buffer, pH 7.4. Dissolved 14.505 g/L Na2HPO4·12H2O, 1.483 g/L NaH2PO4·2H2O and 4.095 g/L NaCl in deionized water. The basic solution was then titrated with the phosphoric acid to pH 7.40. Stored in fridge up to 7 days. Checked pH on the day of experiment and adjust if outside specification of 7.4+/−0.1. • 2. Plasma preparation: • Thawed frozen plasma by placing at 37° C. quickly. Centrifuged plasma at 3,000 rpm for 8 minutes to remove clots, pipetted and pooled the supernatant as the plasma to be used in the experiment. Checked and recorded the pH of the plasma. Only used plasma within the range of pH 7.4 to pH 8. If higher than pH 8, discarded the plasma. By using a 5% CO2 incubator and PBS buffer, a pH of 7.4 was reached after the 4 hour equilibrium dialysis time. Put the plasma on ice until used. • 3. Tested compounds and reference compounds spiking solution: • 0.5 mM test compounds spiking solution A: Added 10 μL of 10 mM test compounds stock solution to 190 μL DMSO. • 0.02 mM spiking solution B: Added 40 μL of spiking solution A to 960 μL of […] Sodium phosphate buffer with 0.5% BSA.
Pre-warmed the plasma and spiking solution B at 37° C. for 5 min. Added 10 μL of pre-warmed spiking solution B into the wells designated for all the time points (5, 15, 30, 45, 60 min).
For 0-min, added 400 μL of acetonitrile (ACN) containing the internal standard (IS) to the wells of 0-min plate and then added 90 μL of plasma. Added 90 μL of pre-warmed plasma into the wells designated for the time points (0, 5, 15, 30, 45, 60 min), and started timing. At 5, 15, 30, 45, 60 min, added 400 μL of ACN containing IS to the wells of corresponding plates, respectively, to stop the reaction. After quenching, shook the plates at the vibrator (IKA, MTS 2/4) for 10 min (600 rpm/min) and then centrifuged at 5594 g for 15 min (Thermo Multifuge×3R). Transferred 50 μL of the supernatant from each well into a 96-well sample plate containing 50 μL of ultra pure water (Millipore ZMQS50F01) for LC/MS analysis.

[2] = mouse liver microsomal stability (Microsome Assay Protocol); format: in vitro ADME; settings: pH 7.4; mouse liver microsomes, NADPH, 37° C.; read-out: MLM t1/2, min
Procedure, shortened: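 Compound at 1.5 μM was mixed with 0.75 mg/mL mouse liver microsomes in 0.1 M potassium phosphate, 1.0 mM EDTA, pH 7.4, then started with NADPH from a 6 mM stock after 5 min preincubation at 37 °C. Samples taken at 0, 5, 15, 30 and 45 min were quenched with acetonitrile containing internal standard and analysed by LC/MS.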

[3] = target: T1, USP7, Active human recombinant protein (Homo sapiens, UniProt Q93009); assay: USP7 assay (Ubiquitin-Rhodamine 110 enzymatic assay); format: biochemical
T1 construct: purchased CP Lot; 20200225001
T1 sequence (Q93009 whole entry): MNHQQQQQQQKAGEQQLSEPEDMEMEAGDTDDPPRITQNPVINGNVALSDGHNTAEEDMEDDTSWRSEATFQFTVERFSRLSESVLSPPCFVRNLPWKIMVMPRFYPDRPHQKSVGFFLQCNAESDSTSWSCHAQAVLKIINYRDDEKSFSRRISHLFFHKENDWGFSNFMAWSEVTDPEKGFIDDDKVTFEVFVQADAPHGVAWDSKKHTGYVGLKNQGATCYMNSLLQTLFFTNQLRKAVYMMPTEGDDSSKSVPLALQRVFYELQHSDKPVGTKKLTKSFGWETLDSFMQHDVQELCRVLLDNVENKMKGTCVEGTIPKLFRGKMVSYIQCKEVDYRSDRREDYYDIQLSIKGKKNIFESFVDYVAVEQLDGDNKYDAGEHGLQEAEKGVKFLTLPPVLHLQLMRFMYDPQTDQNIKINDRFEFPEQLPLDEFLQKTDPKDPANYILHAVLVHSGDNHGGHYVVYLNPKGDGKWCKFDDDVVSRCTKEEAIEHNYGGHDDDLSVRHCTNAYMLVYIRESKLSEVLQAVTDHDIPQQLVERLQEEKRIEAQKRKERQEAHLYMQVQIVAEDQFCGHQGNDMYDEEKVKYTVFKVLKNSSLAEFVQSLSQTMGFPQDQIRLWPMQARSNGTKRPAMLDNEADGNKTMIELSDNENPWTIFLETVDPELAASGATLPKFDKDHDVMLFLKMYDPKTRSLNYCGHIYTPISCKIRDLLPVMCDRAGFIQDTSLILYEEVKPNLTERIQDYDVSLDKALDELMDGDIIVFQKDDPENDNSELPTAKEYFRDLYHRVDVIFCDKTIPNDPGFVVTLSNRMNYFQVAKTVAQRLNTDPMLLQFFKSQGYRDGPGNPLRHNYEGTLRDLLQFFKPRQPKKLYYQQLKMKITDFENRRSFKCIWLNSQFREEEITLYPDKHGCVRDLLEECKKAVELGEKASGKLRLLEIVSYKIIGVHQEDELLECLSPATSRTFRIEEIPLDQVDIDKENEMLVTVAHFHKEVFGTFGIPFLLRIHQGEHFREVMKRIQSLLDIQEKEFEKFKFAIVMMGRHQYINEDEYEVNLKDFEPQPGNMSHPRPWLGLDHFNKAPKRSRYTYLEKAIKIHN
Procedure, shortened: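 Human recombinant USP7 (0.05 nM final) preincubated with compound, 10-point 3-fold series, 15 min at RT. Reaction started with 190 nM ubiquitin-rhodamine 110. Fluorescence (ex 485/em 535 nm) read kinetically 20 min. Slopes normalized to enzyme+substrate and substrate-only controls; IC50 from curve fit.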

Structure (SMILES)	half-life at 2 µM [1]	half-life at 1 µM [2]	IC50 ([3]; read-out: IC50)	Plasma t1/2, min [1]	IC50 ([3]; 1 h, read-out: IC50, μM (1 h))	IC50 ([3]; 6 h, read-out: IC50, μM (6 h))	IC50 ([3]; 16 h, read-out: IC50, μM (16 h))
CN1CCN(CCC(=O)Nc2ccc3c(=O)n(CC4(O)CCN(C(=O)[C@@H](CCCNC(=O)c5ccc6c(Cl)c7c(nc6c5)CCCC7)Cc5ccccc5)CC4)cnc3c2)CC1	> 8.33 h	2 min	< 0.02 µM				
CN1CCN(CCC(=O)Nc2ccc3c(=O)n(CC4(O)CCN(C(=O)C(CCCNC(=O)c5ccc6c(Cl)ccnc6c5)Cc5ccccc5)CC4)cnc3c2)CC1 (centres unmarked)	5.46 h	11 min	0.02 to 0.1 µM				
CN(C)CCCOc1ccc2c(=O)n(CC3(O)CCN(C(=O)[C@H](CCCNC(=O)c4ccc5c(Cl)cc(C6CC6)nc5c4)Cc4ccccc4)CC3)cnc2c1		27.1 min	< 0.02 µM	∞*			
CN(C)CCCOc1ccc2c(=O)n(CC3(O)CCN(C(=O)[C@H](CCCNC(=O)c4ccc5c(Cl)c(C(N)=O)cnc5c4)Cc4ccccc4)CC3)cnc2c1	1.86 h	46.6 min	< 0.02 µM				
CN(C)CCCOc1ccc2c(=O)n(CC3(O)CCN(C(=O)[C@H](CCCNC(=O)c4ccc5c(Cl)c(C(=O)NC6CC6)cnc5c4)Cc4ccccc4)CC3)cnc2c1	0.481 h	44.1 min	< 0.02 µM				
CN(C)CCCOc1ccc2c(=O)n(CC3(O)CCN(C(=O)C(CCCNC(=O)c4ccc5c(Cl)c(C(N)=O)cnc5c4)Cn4ccc(F)n4)CC3)cnc2c1 (centres unmarked)	1.43 h	131 min	< 0.02 µM				
CN(C)CCCOc1ccc2c(=O)n(CC3(O)CCN(C(=O)[C@@H](CCCNC(=O)c4ccc5c(Cl)c(C(N)=O)cnc5c4)Cn4ccc(F)n4)CC3)cnc2c1	1.43 h	223 min	< 0.02 µM				
CN(C)CCCOc1ccc2c(=O)n(CC3(O)CCN(C(=O)[C@H](Cc4ccccc4)N(C)CCNC(=O)c4ccc5c(Cl)c(C(N)=O)cnc5c4)CC3)cnc2c1	2.48 h	101 min	> 1 µM				
CN1CCN(CCC(=O)Nc2ccc3c(=O)n(CC4(O)CCN(C(=O)[C@@H](CCCNC(=O)c5ccc6c(Cl)cc(-c7ccc(F)cc7)nc6c5)Cc5ccccc5)CC4)cnc3c2)CC1 [Compound 5, (S)—N-(4-benzyl-5-(4-hydroxy-4-((7-(3-(4-methylpiperazin-1-yl)propanamido)-4-oxoquinazolin-3(4H)-yl)methyl)piperidin-1-yl)-5-oxopentyl)-4-chloro-2-(4-fluorophenyl)quinoline-7-carboxamide]	5.33 h	18 min	0.1 to 1 µM				
CN1CCN(CCC(=O)Nc2ccc3c(=O)n(CC4(O)CCN(C(=O)[C@@H](CCCNC(=O)c5ccc6c(Cl)cc(-c7cnn(CC(F)(F)F)c7)nc6c5)Cc5ccccc5)CC4)cnc3c2)CC1 [Compound 20]	3.77 h	25.8 min	0.02 to 0.1 µM				
CN1CCN(CCC(=O)Nc2ccc3c(=O)n(CC4(O)CCN(C(=O)C(CCCNC(=O)c5ccc6c(Cl)cc(C7CC7)nc6c5)Cc5ccccc5)CC4)cnc3c2)CC1 (centres unmarked) [Compound 22]	2.25 h	18.3 min	0.02 to 0.1 µM				
C=CS(=O)(=O)Nc1ccccc1-c1ccc(C(=O)N2CCC(O)(Cn3cnc4cc(NC(=O)CCN5CCN(C)CC5)ccc4c3=O)CC2)cc1 [Compound 23, N-(3-((4-hydroxy-1-(2′-(vinylsulfonamido)-[1,1′-biphenyl]-4-carbonyl)piperidin-4-yl)methyl)-4-oxo-3,4-dihydroquinazolin-7-yl)-3-(4-methylpiperazin-1-yl)propanamide]	0.175 h	49.3 min	0.02 to 0.1 µM				
CN1CCN(CCOc2ccc3c(=O)n(CC4(O)CCN(C(=O)C(CCCNC(=O)c5ccc6c(Cl)ccnc6c5)Cc5ccccc5)CC4)cnc3c2)CC1 (centres unmarked) [Compound 30, N-(4-benzyl-5-(4-hydroxy-4-((7-(2-(4-methylpiperazin-1-yl)ethoxy)-4-oxoquinazolin-3(4H)-yl)methyl)piperidin-1-yl)-5-oxopentyl)-4-chloroquinoline-7-carboxamide]	112 h	15.7 min	0.02 to 0.1 µM				
CN(C)CCC(=O)Nc1ccc2c(=O)n(CC3(O)CCN(C(=O)C(CCCNC(=O)N4CCc5c(Cl)ccnc5C4)Cc4ccccc4)CC3)cnc2c1 (centres unmarked) [Compound 43]	3.09 h	8.3 min	0.02 to 0.1 µM				
O=C(CCN1CCNCC1)Nc1ccc2c(=O)n(CC3(O)CCN(C(=O)C(CCCNC(=O)c4ccc5c(Cl)ccnc5c4)Cc4ccccc4)CC3)cnc2c1 (centres unmarked) [Compound 61, N-(4-benzyl-5-(4-hydroxy-4-((4-oxo-7-(3-(piperazin-1-yl)propanamido)quinazolin-3(4H)-yl)methyl)piperidin-1-yl)-5-oxopentyl)-4-chloroquinoline-7-carboxamide]	3.22 h	28.4 min	0.02 to 0.1 µM				
CN(C)CCC(=O)Nc1ccc2c(=O)n(CC3(O)CCN(C(=O)C(CCCNC(=O)c4ccc5c(Cl)ccnc5c4)Cc4ccccc4)CC3)cnc2c1 (centres unmarked) [Compound 62]	3.23 h	12.3 min	0.02 to 0.1 µM				
CN(C)CCC(=O)Nc1ccc2c(=O)n(CC3(O)CCN(C(=O)C4CCN(CCNC(=O)c5ccc6c(Cl)ccnc6c5)C[C@H]4c4ccccc4)CC3)cnc2c1 (some centres unmarked) [Compound 73]	3.19 h	46.8 min	0.02 to 0.1 µM				
CN(C)CCC(=O)Nc1ccc2c(=O)n(CC3(O)CCN(C(=O)[C@@H]4CCN(CCNC(=O)c5ccc6c(Cl)ccnc6c5)C[C@H]4c4ccccc4)CC3)cnc2c1 [Compound 75]	1.12 h	69.4 min	< 0.02 µM				
CN(C)CCC(=O)Nc1ccc2c(=O)n(CC3(O)CCN(C(=O)C(CCc4ncc(-c5ccc6c(Cl)ccnc6c5)o4)Cc4ccccc4)CC3)cnc2c1 (centres unmarked) [Compound 77]	2.68 h	1.73 min	0.02 to 0.1 µM				
CN(C)CCC(=O)Nc1ccc2c(=O)n(CC3(O)CCN(C(=O)C(CCCC(=O)Nc4ccc5c(Cl)ccnc5c4)Cc4ccccc4)CC3)cnc2c1 (centres unmarked) [Compound 78]	1.29 h	14.6 min	< 0.02 µM				
CCc1cc(Cl)c2ccc(C(=O)NCCCC(Cc3ccccc3)C(=O)N3CCC(O)(Cn4cnc5cc(NC(=O)CCN(C)C)ccc5c4=O)CC3)cc2n1 (centres unmarked) [Compound 79]	3.91 h	10.5 min	0.02 to 0.1 µM				
CN(C)CCC(=O)Nc1ccc2c(=O)n(CC3(O)CCN(C(=O)C(CCCNC(=O)c4ccc5c(F)ccnc5c4)Cc4ccccc4)CC3)cnc2c1 (centres unmarked) [Compound 87]	1.01 h	23.2 min	< 0.02 µM				
CN(C)CCC(=O)Nc1ccc2c(=O)n(CC3(O)CCN(C(=O)C(CCCNC(=O)c4ccc5c(Cl)c6c(nc5c4)C4CCC6C4)Cc4ccccc4)CC3)cnc2c1 (centres unmarked) [Compound 91]	5.59 h	2.97 min	0.02 to 0.1 µM				
C=CS(=O)(=O)Nc1ccccc1N1CCC(C(=O)N2CCC(O)(Cn3cnc4cc(NC(=O)CCN5CCN(C)CC5)ccc4c3=O)CC2)[C@H](c2ccccc2)C1 (some centres unmarked) [Compound 93]	0.172 h	14.7 min	< 0.02 µM				
CN1CCN(CCC(=O)Nc2ccc3c(=O)n(CC4(O)CCN(C(=O)C5CCN(c6cccc7c6CN(C#N)C7)C[C@H]5c5ccccc5)CC4)cnc3c2)CC1 (some centres unmarked) [Compound 94]	0.0218 h	30.8 min	0.1 to 1 µM				
C=CC(=O)Nc1ccccc1N1CCC(C(=O)N2CCC(O)(Cn3cnc4cc(NC(=O)CCN5CCN(C)CC5)ccc4c3=O)CC2)C(c2ccccc2)C1 (centres unmarked) [Compound 102]	0.0708 h	26.9 min	0.1 to 1 µM				
C=CC(=O)Nc1ccncc1N1CCC(C(=O)N2CCC(O)(Cn3cnc4cc(NC(=O)CCN5CCN(C)CC5)ccc4c3=O)CC2)C(c2ccccc2)C1 (centres unmarked) [Compound 106]	0.113 h	39 min			0.1 to 1 µM	< 0.02 µM	< 0.02 µM

Source: patent US20240376076A1, “INHIBITORS TARGETING UBIQUITIN SPECIFIC PROTEASE 7 (USP7)” (Dana-Farber Cancer Institute, Inc., priority 2021, published 2024)
